Measurements taken from US6413909B1, “Herbicide composition for control of rye grass and vetch in preplant burndown” (priority 2001, dated 2002).

Key:
[1] = system: broadleaf weeds and grasses typically found in preplant corn fields; assay: Field test of preplant burndown effectiveness (Example 1); format: in vivo; conditions: average of ratings 6 and 8 weeks after treatment
Experimental: The composition of the present invention was tested for percent burndown effectiveness, compared to pretreatment, in fields containing broadleaf weeds and grasses typically found in preplant corn fields, including Texas panicum, fall panicum, signalgrass, goosegrass, barnyardgrass, yellow & green foxtail, pigweed, wild mustard, ryegrass, vetch, volunteer wheat, Florida pusley, smartweed, and cutleaf evening primrose.
The composition of the present invention consisted of about 57% ametryn, 25% atrazine, and 18% paraquat, by weight, and was applied at a rate of about 2 lbs. per acre. On separate fields, for comparison, ametryn alone, paraquat alone, atrazine alone, and ametryn plus gramoxone were applied. The composition of the present invention was formulated by suspending 2 lbs. of the composition of the present invention per 20 gallons of water. Herbicides were rated for burndown effectiveness 6 and 8 weeks after treatment. The two resulting values were averaged.

[2] = system: vetch; conditions: herbicide alone; cited from earlier work
[3] = system: humans and other mammals; conditions: result in words; cited from earlier work

## CCNc1nc(NC(C)C)nc(SC)n1 [ametryn, 2-(ethylamino)-4-isopropylamino-6-methylthio-s-triazine]
[1]; ametryn 1.14 lb active ingredient/acre, compared to pretreatment
  Percent Burndown: 30%
[2]
  effective against vetch: 100%
[3]
  toxicity to humans: minimal human toxicity

## C[n+]1ccc(-c2cc[n+](C)cc2)cc1 [paraquat, 1,1-dimethyl-4,4-bipyridinium]
[1]; paraquat 0.35 lb active ingredient/acre
  Percent Burndown: 30%
[1]; paraquat 0.70 lb active ingredient/acre
  Percent Burndown: 50%
[3]
  toxicity to humans: high toxicity to humans and other mammals
